# Experimental data published in patent US20260103465A1, “GLYCOGEN SYNTHASE KINASE 3 INHIBITORS AND USES THEREOF” (The Broad Institute, Inc., priority 2023, published 2026).
# Like-named read-outs stand apart in the source and are kept apart here.
# Tests used:
# [1] = target: T1, GSK3b (GST-full length GSK3b) (Homo sapiens, UniProt P49841); test: GSK3b TR-FRET kinase inhibition assay; type: biochemical
# T1 construct: GST-full length GSK3b: [SignalChem G08-9G]; purchased SignalChem G08-9G
# Method: (§1) TR-FRET assay was performed in a white, 384 well, low volume, flat bottom plate (Grenier). After a 30 minute preincubation in assay buffer with the indicated concentration of compound, the kinase activity was initiated by the addition of the substrates. 1 nM GSK3a (GST-full length GSK3a [SignalChem G08-10G]) or 1 nM GSK3b (GST-full length GSK3b: [SignalChem G08-9G]) were then incubated at ambient temperature for 100 minutes in 10 μl of 50 mM Tris, pH 7.5, 20 mM MgCl2, 0.05 mM DTT, 100 μg/ml BSA and 1% DMSO, with 200 nM biotinylated peptide substrate (biotinylated and S645 phosphorylated glycogen synthase 631-650) and ATP (e.g., at 2 μM, 4 μM, 10 μM, 100 μM, or 1 mM). The kinase activity was quenched with 2 μl of 250 mM EDTA. A 10 μl volume of 40 nM Strepavidin-d2, 2 nM […] antibody in TR-FRET Detection Buffer (Invitrogen) was then added. After 60 min at room temperature the plate was read on Envision plate reader using Ex: 340 nm, Em: 615 nm and […]. The normalized 665/615 Signal ratio versus log compound concentration was analyzed by XLFIT to yield IC50 values.
# [2] = target: T2, GSK3a (GST-full length GSK3a) (Homo sapiens, UniProt P49840); test: GSK3a TR-FRET kinase inhibition assay; type: biochemical
# T2 construct: GST-full length GSK3a [SignalChem G08-10G]; purchased SignalChem G08-10G
# Method: as §1
# [3] = 1 mM ATP, Table 3, read-out: GSK3b TR-FRET 1 mM ATP Average IC50
# [4] = 1 mM ATP, Table 3, read-out: GSK3a TR-FRET 1 mM ATP Average IC50
# [5] = 1 mM ATP, Table 5, read-out: GSK3β TR-FRET 1 mM ATP Average IC50
# [6] = 1 mM ATP, Table 5, read-out: GSK3α TR-FRET 1 mM ATP Average IC50
# [7] = 100 μM ATP, read-out: GSK3b 100 μM ATP Average IC50
# [8] = 100 μM ATP, read-out: GSK3a 100 μM ATP Average IC50
# [9] = 2 μM ATP, read-out: GSK3β TR-FRET 2 μM ATP GMean IC50
# [10] = 4 μM ATP, read-out: GSK3α TR-FRET 4 μM ATP GMean IC50
# T1 sequence (P49841 whole entry): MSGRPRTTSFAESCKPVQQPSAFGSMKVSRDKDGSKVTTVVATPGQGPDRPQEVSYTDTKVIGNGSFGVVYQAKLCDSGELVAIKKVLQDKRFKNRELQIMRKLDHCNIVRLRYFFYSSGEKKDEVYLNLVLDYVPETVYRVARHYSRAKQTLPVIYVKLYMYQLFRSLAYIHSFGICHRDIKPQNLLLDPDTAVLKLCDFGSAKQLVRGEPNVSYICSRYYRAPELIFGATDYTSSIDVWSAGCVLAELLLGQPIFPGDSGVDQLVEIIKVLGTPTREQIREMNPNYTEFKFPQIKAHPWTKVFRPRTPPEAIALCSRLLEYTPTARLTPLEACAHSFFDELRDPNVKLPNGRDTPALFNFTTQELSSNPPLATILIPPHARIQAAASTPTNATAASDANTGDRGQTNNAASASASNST
# T2 sequence (P49840 whole entry): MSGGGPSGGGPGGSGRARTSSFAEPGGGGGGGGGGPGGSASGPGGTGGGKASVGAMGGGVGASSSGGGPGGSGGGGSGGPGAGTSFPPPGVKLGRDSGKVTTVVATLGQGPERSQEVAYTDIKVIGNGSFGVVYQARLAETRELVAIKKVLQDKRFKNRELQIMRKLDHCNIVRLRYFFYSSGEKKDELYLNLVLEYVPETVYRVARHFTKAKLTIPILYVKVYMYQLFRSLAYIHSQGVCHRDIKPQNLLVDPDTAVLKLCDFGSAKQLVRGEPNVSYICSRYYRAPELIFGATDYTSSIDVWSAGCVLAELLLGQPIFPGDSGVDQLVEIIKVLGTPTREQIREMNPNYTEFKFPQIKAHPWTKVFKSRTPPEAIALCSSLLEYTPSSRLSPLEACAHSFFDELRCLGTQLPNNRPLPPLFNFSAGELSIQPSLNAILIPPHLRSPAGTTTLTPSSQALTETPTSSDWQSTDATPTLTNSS
Compound,"IC50 [1, 3] [nM]","IC50 [2, 4] [nM]","IC50 [1, 5] [nM]","IC50 [2, 6] [nM]",further results
"CC1(C)CC(=O)C2=C(C1)Nc1ncccc1C2(C)c1cccc(-c2ccncc2N2CCCC2)c1 (single isomer, unassigned) [Compound 158A]",100 to 1000,100 to 1000,–,–,–
"CC1(C)CC2=C(C(=O)N1)C(C)(c1ccccc1)c1c(ncc(C(F)F)c1C#N)N2 (single isomer, unassigned) [628A]",–,–,1000 to 5000,1000 to 5000,–
"C=Cc1ccnc2c1C(C)(c1ccccc1)C1=C(CC(C)(C)CC1=O)N2 (single isomer, unassigned) [Compound 111A]",100 to 1000,100 to 1000,–,–,"IC50 [1, 7]: ≤ 100 nM; IC50 [2, 8]: ≤ 100 nM"
"CC(C)(C)Cc1cncc(F)c1-c1cccc(C2(C)C3=C(CC(C)(C)CC3=O)Nc3ncc(F)cc32)c1 (single isomer, unassigned) [Compound 173A]",1000 to 5000,1000 to 5000,–,–,–
"CCC1(c2cccc(-c3cnnc(C)c3)c2)C2=C(CC(C)(C)CC2=O)Nc2ncccc21 (single isomer, unassigned) [Compound 1022A]",–,–,–,–,"IC50 [1, 9]: 100 to 1000 nM; IC50 [2, 10]: 100 to 1000 nM"
"CCC1(c2cccc(-c3ccnc4c3CCCC4)c2)C2=C(CC(C)(C)CC2=O)Nc2ncccc21 (single isomer, unassigned) [Compound 1039A]",–,–,–,–,"IC50 [1, 9]: 100 to 1000 nM; IC50 [2, 10]: 100 to 1000 nM"
"CCC1(c2cccc(-c3cn(C)nc3C)c2)C2=C(CC(C)(C)CC2=O)Nc2ncccc21 (single isomer, unassigned) [Compound 1023B]",–,–,–,–,"IC50 [1, 9]: 1000 to 5000 nM; IC50 [2, 10]: 100 to 1000 nM"
"CC1(C)CC(=O)C2=C(C1)Nc1ncc(C3CCC3)cc1C2(C)c1ccccc1 (single isomer, unassigned) [Compound 122A]",5000 to 20000,–,–,–,"IC50 [1, 7]: 1000 to 5000 nM; IC50 [2, 8]: 1000 to 5000 nM"
"Cn1ncc2c3c(ncc21)NC1=C(C(=O)CC(C)(C)C1)C3(C)c1cccc(S(C)(=O)=O)c1 (single isomer, unassigned) [649A]",–,–,1000 to 5000,5000 to 20000,–
"CC1(C)CC2=C(C(=O)N1)C(C)(c1ccccc1)c1c(ncc(F)c1C#N)N2 (single isomer, unassigned) [604A]",–,–,1000 to 5000,1000 to 5000,–
"CC(C)Oc1cccc(C2(C)C3=C(CC(C)(C)CC3=O)Nc3ncc(C(F)F)c(C#N)c32)c1 (single isomer, unassigned) [650A]",–,–,1000 to 5000,5000 to 20000,–
"Cc1cnc2c(c1C)C(C)(c1ccccc1)C1=C(CC(C)(C)CC1=O)N2 (single isomer, unassigned) [601A]",–,–,1000 to 5000,1000 to 5000,–
"COc1cncc(F)c1-c1cccc(C2(C)C3=C(CC(C)(C)CC3=O)Nc3ncc(C(F)(F)F)cc32)c1 (single isomer, unassigned) [Compound 174A]",1000 to 5000,1000 to 5000,–,–,–
"COc1cncc(F)c1-c1cccc(C2(C)C3=C(CC(C)(C)CC3=O)Nc3ncc(C4CC4)cc32)c1 (single isomer, unassigned) [Compound 167B]",1000 to 5000,1000 to 5000,–,–,–
"CCC1(c2ccccc2)C2=C(Nc3ncccc31)C(F)C(C)(C)CC2=O (single isomer, unassigned) [Compound 1006A]",–,–,–,–,"IC50 [1, 9]: > 5000 nM; IC50 [2, 10]: > 5000 nM"
"CC1(C)CC(=O)C2=C(C1)Nc1ncc(F)cc1C2(C)c1cccc(C(F)F)c1 (single isomer, unassigned) [623B]",–,–,100 to 1000,100 to 1000,–
"CCC1(c2cccc(-c3ccnc(C)c3C)c2)C2=C(CC(C)(C)CC2=O)Nc2ncccc21 (single isomer, unassigned) [Compound 147A]",1000 to 5000,100 to 1000,–,–,–
"CCC1(c2cccc(-c3ccccn3)c2)C2=C(CC(C)(C)CC2=O)Nc2ncccc21 (single isomer, unassigned) [Compound 1016B]",–,–,–,–,"IC50 [1, 9]: > 5000 nM; IC50 [2, 10]: 1000 to 5000 nM"
"COc1cncc(F)c1-c1cccc(C2(C)C3=C(CC(C)(C)CC3=O)Nc3ncc(C(F)(F)F)cc32)c1 (single isomer, unassigned) [Compound 174B]",100 to 1000,1000 to 5000,–,–,–
"CC1(C)CC(=O)C2=C(C1)Nc1ncc(C(F)(F)F)cc1C2(C)c1cccc(S(C)(=O)=O)c1 (single isomer, unassigned) [Compound 157A]",100 to 1000,1000 to 5000,–,–,–
"CC1(C)CC(=O)C2=C(C1)Nc1ncc(C(F)(F)F)cc1C2(C)c1cccc(C(F)F)c1 (single isomer, unassigned) [646B]",–,–,100 to 1000,1000 to 5000,–

Compound,"IC50 [1, 3] [nM]","IC50 [2, 4] [nM]","IC50 [1, 5] [nM]","IC50 [2, 6] [nM]",further results
"Cc1ccc(C2(C)C3=C(CC(C)(C)CC3=O)Nc3ncc(F)cc32)cc1S(C)(=O)=O (single isomer, unassigned) [644A]",–,–,100 to 1000,100 to 1000,–
"CC1(C)CC(=O)C2=C(C1)Nc1ncc(F)c(C3CC3)c1C2(C)c1cccc(S(C)(=O)=O)c1 (single isomer, unassigned) [Compound 153B]",5000 to 20000,5000 to 20000,–,–,–
"CC1(C)CC(=O)C2=C(C1)Nc1ncc(C#N)cc1C2(C)c1ccccc1 (single isomer, unassigned) [Compound 109B]",5000 to 20000,5000 to 20000,–,–,–
"CCC1(c2cccc(C(C)C)c2)C2=C(CC(C)(C)CC2=O)Nc2ncccc21 (single isomer, unassigned) [Compound 1011A]",–,–,–,–,"IC50 [1, 9]: > 5000 nM; IC50 [2, 10]: > 5000 nM"
"CCC1(c2cccc(-c3cc(C)nn3C)c2)C2=C(CC(C)(C)CC2=O)Nc2ncc(F)cc21 (single isomer, unassigned) [Compound 1033A]",–,–,–,–,"IC50 [1, 9]: > 5000 nM; IC50 [2, 10]: 1000 to 5000 nM"
"CC1(C)CC2=C(C(=O)[C@H]1F)[C@](C)(c1ccccc1)c1c(ncc(F)c1C#N)N2 (single isomer, unassigned) [Compound 616D]",–,–,5000 to 20000,5000 to 20000,–
"CC1(C)CC(=O)C2=C(C1)Nc1ncc(C(F)(F)F)c(C#N)c1C2(C)c1ccccc1 (single isomer, unassigned) [Compound 137A]",100 to 1000,1000 to 5000,–,–,–
"C=Cc1c(C(F)(F)F)cnc2c1C(C)(c1ccccc1)C1=C(CC(C)(C)CC1=O)N2 (single isomer, unassigned) [636B]",–,–,1000 to 5000,5000 to 20000,–
"CC1(C)CC2=C(C(=O)N1)C(C)(c1cccc(S(C)(=O)=O)c1)c1cc(C(F)(F)F)cnc1N2 (single isomer, unassigned) [651B]",–,–,100 to 1000,100 to 1000,–
"CC1(C)CC2=C(C(=O)N1)C(C)(c1cccc(S(C)(=O)=O)c1)c1cc(C3CC3)cnc1N2 (single isomer, unassigned) [647B]",–,–,5000 to 20000,5000 to 20000,–
"CC1(C)CC(=O)C2=C(C1)Nc1nccc(CC3CC3)c1C2(C)c1ccccc1 (single isomer, unassigned) [Compound 123B]",1000 to 5000,1000 to 5000,–,–,–
"CC1(C)CC(=O)C2=C(C1)Nc1ncc(F)c(C(F)(F)F)c1C2(C)c1cccc(S(C)(=O)=O)c1 (single isomer, unassigned) [Compound 166A]",100 to 1000,100 to 1000,–,–,–
"CN(c1cccc(C2(C)C3=C(CC(C)(C)CC3=O)Nc3ncccc32)c1)c1ncccn1 (single isomer, unassigned) [641B]",–,–,1000 to 5000,1000 to 5000,–
"CCC1(c2ccccc2)C2=C(CC(C)(C)NC2=O)Nc2ncccc21 (single isomer, unassigned) [Compound 1002A]",–,–,–,–,"IC50 [1, 9]: > 5000 nM; IC50 [2, 10]: > 5000 nM"
"CC1(C)CC(=O)C2=C(C1)Nc1ncc(C(F)(F)F)cc1C2(C)c1ccccc1 (single isomer, unassigned) [Compound 128A]",1000 to 5000,5000 to 20000,–,–,–
"CCC1(c2cccc(-c3cccnc3)c2)C2=C(CC(C)(C)CC2=O)Nc2ncccc21 (single isomer, unassigned) [Compound 1015B]",–,–,–,–,"IC50 [1, 9]: > 5000 nM; IC50 [2, 10]: 1000 to 5000 nM"
"CCC1(c2cccc(-c3ccnc(C)c3C)c2)C2=C(CC(C)(C)CC2=O)Nc2ncc(F)cc21 (single isomer, unassigned) [Compound 1035B]",–,–,–,–,"IC50 [1, 9]: 1000 to 5000 nM; IC50 [2, 10]: 1000 to 5000 nM"
"CC1(C)CC(=O)C2=C(C1)Nc1ncc(C(F)(F)F)c(F)c1C2(C)c1ccccc1 (single isomer, unassigned) [Compound 136A]",5000 to 20000,5000 to 20000,–,–,–
"CC1(C)CC(=O)C2=C(C1)Nc1ncc(F)c(F)c1C2(C)c1ccccc1 (single isomer, unassigned) [Compound 116B]",100 to 1000,100 to 1000,–,–,–
"CC1(C)CC(=O)C2=C(C1)Nc1ncc(C(C)(C)C)cc1C2(C)c1ccccc1 (single isomer, unassigned) [Compound 124A]",5000 to 20000,5000 to 20000,–,–,"IC50 [1, 7]: 5000 to 20000 nM; IC50 [2, 8]: 5000 to 20000 nM"
"C=Cc1cnc2c(c1C#N)C(C)(c1ccccc1)C1=C(CC(C)(C)CC1=O)N2 (single isomer, unassigned) [607A]",–,–,1000 to 5000,1000 to 5000,–
